Legend:
[1] = test system: Botrytis cinerea; assay: Example P: in vivo preventive test on Botrytis cinerea (grey mould), gherkin plants; conditions: 500 ppm of active ingredient, grading 4 to 5 days after contamination
Procedure, shortened: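 Gherkin plants at Z11 cotyledon stage sprayed preventively with active ingredient, then inoculated 24 h later with B. cinerea spores (50 000/mL) in PDB/fructose nutrient solution. Incubation at 17 °C and 90% RH; % efficacy graded 4–5 days post-inoculation against solvent-treated controls.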

[2] = test system: Sphaerotheca fuliginea; assay: Example B: in vivo preventive test on Sphaerotheca fuliginea (powdery mildew on cucurbits), gherkin plants; conditions: 500 ppm of active ingredient, grading 12 days after contamination
Procedure, shortened: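 Gherkin plants grown at 24 °C were sprayed with compound at the Z11 cotyledon stage; controls received acetone/tween/DMSO/water without active. 24 h later, cotyledons were inoculated by spraying with Sphaerotheca fuliginea spores (100 000 spores per mL).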

[3] = test system: Pyricularia oryzae; type: in vivo; conditions: Pyricularia oryzae on rice plants, preventive, 500 ppm of active ingredient, grading 6 days after contamination
[4] = test system: Septoria tritici; assay: Example I: in vivo preventive test on Septoria tritici (wheat), acetone/tween/DMSO preparation; conditions: 500 ppm of active ingredient, grading 24 days after contamination
Procedure, shortened: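 Scipion wheat grown at 22° C, sprayed at 1-leaf stage (10 cm); controls received acetone/tween/DMSO/water without active. Inoculated 24 h later with S. tritici spores (500 000/mL), held 72 h at 18° C, 100% RH, then 21 days at 90% RH. % efficacy vs controls scored 24 days post-inoculation.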

[5] = test system: Uromyces appendiculatus; assay: Example Q: in vivo preventive test on Uromyces appendiculatus (bean rust); conditions: Uromyces appendiculatus on bean plants, 500 ppm of active ingredient, grading 11 days after contamination
Procedure, shortened: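 Saxa bean plants at 2-leaf stage, grown at 24° C., sprayed preventively with compound; 24 h later inoculated with U. appendiculatus spores (150 000 spores per mL). Percent efficacy graded 11 days after inoculation versus solvent-treated controls.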

[6] = test system: Pyrenophora teres; assay: Example F: in vivo preventive test on Pyrenophora teres (barley), acetone/tween/DMSO preparation; conditions: 500 ppm of active ingredient, barley, grading 14 days after contamination
Procedure, shortened: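 Barley ("Plaisant") grown at 22° C was sprayed at the 1-leaf stage (10 cm) with active ingredient in acetone/tween/DMSO/water, with solvent-only controls. After 24 h, leaves were inoculated with Pyrenophora teres spores (12 000 spores per mL) from 12-day cultures. % efficacy versus controls graded 14 days post-contamination.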

[7] = test system: Alternaria brassicae; assay: Example D: in vivo preventive test on Alternaria brassicae (leaf spot on radish); conditions: 500 ppm of active ingredient, grading 6 days after contamination
Procedure, shortened: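 Radish plants at cotyledon stage were sprayed with compound; controls got the acetone/tween/DMSO/water mix alone. After 24 h they were inoculated with Alternaria brassicae spores (50 000 spores per mL) and kept at 20 °C, 100% relative humidity. % efficacy versus controls was graded 6 days post-inoculation.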

[8] = test system: Puccinia recondita; assay: Example M: in vivo preventive test on Puccinia recondita (brown rust on wheat); conditions: 500 ppm of active ingredient, grading 12 days after contamination
Procedure, shortened: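 Wheat (Scipion) sprayed with compound at 1-leaf stage, grown at 22° C. Inoculated 24 h later with a spore suspension at 100 000 spores per mL. Efficacy (%) graded 12 days after inoculation against solvent-treated controls.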

[9] = log P by HPLC on reversed-phase column (C 18), EEC Directive 79831 Annex V.A8; type: physicochemical; conditions: HPLC reversed-phase C 18, 40° C., 0.1% aqueous formic acid and acetonitrile gradient; several values = mixture of two or more isomers
Procedure, shortened: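 Reversed-phase C18 HPLC at 40° C, 0.1% aqueous formic acid/acetonitrile linear gradient 10% to 90% acetonitrile, per EEC Directive 79831 Annex V.A8. log P obtained from retention time by linear interpolation between unbranched alkan-2-ones (C3-C16) of known log P.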

| SMILES | Efficacy [1] [%] | Efficacy [2] [%] | Efficacy [3] [%] | Efficacy [4] [%] | Efficacy [5] [%] | Efficacy [6] [%] | Efficacy [7] [%] | Efficacy [8] [%] | logP [9] |
| --- | --- | --- | --- | --- | --- | --- | --- | --- | --- |
| Cn1nc(C(F)F)c(C(=O)N(C2CC2)C2CCCC3CCCCC32)c1F (mixture of isomers) [Example 31] | 100 | 100 | 80 | 96 | 100 | 97 | 100 | 100 | – |
| Cn1nc(C(F)F)c(C(=O)NC2CCC3CCCC32)c1F (centres unmarked) [Example 2] | 70 | – | 71 | – | 98 | – | 70 | 98 | 2.86 |
